{"source": "paper PMC11311998", "about": "“AR71, Histamine H3 Receptor Ligand—In Vitro and In Vivo Evaluation (Anti-Inflammatory Activity, Metabolic Stability, Toxicity, and Analgesic Action)” (International Journal of Molecular Sciences, 2024)", "key": {"[1]": {"experiment": "metabolic stability in human liver microsomes", "assay_type": "in vitro ADME", "procedure": "The metabolic stability of AR71 was assessed in vitro using human liver microsomes (HLMs). […] After 120 min of incubation with HLMs, 85% of AR71 remained unchanged. However, during this time, six metabolites were formed (Figure S4a–d, Supplementary Materials). The metabolite M1 was formed in the highest amount (5.5%). The others were formed in amounts of 0.6% to 1.2%. Based on an analysis of their molar masses, and with the help of MetaSite 6.0.1, a type of metabolic transformation was proposed. The identified in vitro AR71 metabolic pathways and the most probable site of metabolism predicted by MetaSite 6.0.1 are shown in Table 1.\nMetabolic stability was assessed in human liver microsomes (HLMs, Sigma-Aldrich, St. Louis, MO, USA), as previously described. After 120 min of incubation with HLMs, liquid chromatography–mass spectrometry (Waters ACQUITY TQD system with the TQ Detector, Waters, Milford, MA, USA) was used to identify the formed metabolites. MetaSite 6.0.1 software (Molecular Discovery Ltd., Hertfordshire, U.K.) was used to predict the most probable sites of metabolism in silico."}, "SH-SY5Y cells": {"tested_on": "SH-SY5Y cells", "assay_type": "cell-based, human", "conditions": "without rotenone", "procedure": "To test neuroprotective activity, SH-SY5Y cells were pre-treated for 1 h with various concentrations of AR71, after which rotenone (6.25 μM) was added and the cells were cultured for another 24 h. […] Co-treatment with AR71 protected cells from the toxic effect of rotenone, resulting in LDH leakage ranging from 10 to 22% only.\nThe protective effect of AR71 against rotenone-induced toxicity in SH-SY5Y cells was assessed by measuring LDH release. SH-SY5Y cells (6 × 10^3 cells/100 μL/well) were seeded in black 96-well plates Nunclon^TM Delta Surface no. 137101 (ThermoFischer Scientific, Waltham, MA, USA) and cultured overnight. The next day, the medium was removed and replaced with a fresh one with an increasing concentration of AR71 (0.0975–50 μM). After 1 h of compound pre-treatment, the neurotoxin rotenone (6.25 μM) was added, and the cells were cultured for another 24 h. For the negative and positive controls, cells were treated with 0.1% DMSO and 6.25 μM of rotenone alone, respectively. The cells treated with the compound alone were used to compare the effect with those co-treated with rotenone. After 24 h, the level of LDH leakage was measured by the CytoTox-ONE™ Homogeneous Membrane Integrity Assay (Promega, Madison, WI, USA) following the manufacturer’s protocol. Briefly, 100 μL of CytoTox-ONE™ reagent (Promega, Madison, WI, USA) was added to each well, and the cells were incubated for 10 min at room temperature protected from light. The fluorescence was measured using the multimode plate reader Tecan Spark (Tecan, Männedorf, Switzerland) with an excitation wavelength of 560 nm and an emission wavelength of 590 nm."}, "CCI-exposed mice": {"tested_on": "CCI-exposed mice", "experiment": "CCI neuropathic pain model, all behavioural tests and observation", "assay_type": "in vivo, mouse", "procedure": "The effects of a single intraperitoneal (i.p.) injection of AR71 at doses of 5, 10, and 20 mg/kg on mechanical (von Frey test) and thermal (cold plate and tail flick tests) stimulus were evaluated on day 14 following sciatic nerve injury (Figure 15). There were seven to eight animals per group. All these tests were performed in three time series after the administration of the compound. In the case of the von Frey test—after 30, 90, and 180 min; the cold plate test—after 35, 95, and 185 min; and the tail flick test—after 40, 100, and 190 min.\nThe mice were randomly divided into four experimental groups. One group received a vehicle treatment (10% DMSO/10%(2-Hydroxypropyl)-β-cyclodextrin/water for injection, i.p.), while the other three groups were administered with AR71 at doses of 5, 10, or 20 mg/kg of body weight (b.w.), i.p. Baseline measurements for all tests were conducted before the compounds were injected, and the results are presented as percentages of the maximal possible effect (% MPE). […] All data from behavioural tests were analysed using a one-way ANOVA with Bonferroni’s multiple comparison post hoc test.\nAssessment of the analgesic activity of AR71 was performed using a mouse experimental model of chronic constriction injury of the sciatic nerve, by three tests including the von Frey test, the cold plate test, and the tail flick test. […]"}, "human H3R": {"biological_target": "human H3R", "parameters": "method as in PMID 36370200", "conditions": "cited from earlier work"}}, "data": [{"compound": "COc1cc(/C=C/C(=O)c2ccc(OCCCN3CCCCC3)cc2)cc(OC)c1OC", "note": "[AR71, (E)-3-(3,4,5-trimethoxyphenyl)-1-(4-(3-(piperidin-1-yl)propoxy)phenyl)prop-2-en-1-one]", "values": [{"measurement": "number of metabolites formed", "setting": "[1]; 120 min incubation with HLMs", "value": "six"}, {"measurement": "parent compound remaining unchanged", "setting": "[1]; 120 min incubation with HLMs", "value": 85, "unit": "%"}, {"measurement": "parent compound remaining unchanged", "setting": "[1]; 120 min incubation with HLMs, listed as AR-71", "value": 85.40, "unit": "%"}, {"measurement": "metabolic stability", "setting": "[1]; HLMs", "value": "rather metabolically stable"}, {"measurement": "LDH leakage compared with control cells", "setting": "SH-SY5Y cells; 50 μM", "value": "~60", "unit": "%"}, {"measurement": "effect on cell membrane integrity (LDH)", "setting": "SH-SY5Y cells; 0.0975–25 μM", "value": "did not disturb the cell membrane"}, {"measurement": "sedative, locomotor or gastrointestinal effects", "setting": "CCI-exposed mice; 5, 10, 20 mg/kg i.p.", "value": "no sedative, locomotor, or gastrointestinal effects"}, {"measurement": "dose with the highest analgesic effects", "setting": "CCI-exposed mice; single i.p. injection, doses 5, 10, 20 mg/kg, day 14 after CCI", "value": 20, "unit": "mg/kg"}, {"measurement": "Ki", "setting": "human H3R", "value": 0.024, "unit": "µM"}]}]}
